Measurements reported in PubChem BioAssay (NCI).
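Interpolation was linear, between the two tested concentrations surrounding the appropriate level; five concentrations were tested over 48 hours in 96-well plates. GI50 is the concentration that inhibits growth by half. TGI denotes the concentration required for complete inhibition of growth.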

How the values were obtained:
Assay in all cases: NCI anticancer screen, dose series, 48 h
A498 renal = system: A498 renal
A549 NSCLC = system: A549 NSCLC
ACHN renal = system: ACHN renal
BT-549 breast = system: BT-549 breast
CAKI-1 renal = system: CAKI-1 renal
CCRF-CEM leukemia = system: CCRF-CEM leukemia
COLO 205 colon = system: COLO 205 colon
DU-145 prostate = system: DU-145 prostate
EKVX NSCLC = system: EKVX NSCLC
HCC-2998 colon = system: HCC-2998 colon
HCT-116 colon = system: HCT-116 colon
HCT-15 colon = system: HCT-15 colon
HL-60(TB) leukemia = system: HL-60(TB) leukemia
HOP-62 NSCLC = system: HOP-62 NSCLC
HOP-92 NSCLC = system: HOP-92 NSCLC
HS 578T breast = system: HS 578T breast
HT29 colon = system: HT29 colon
IGROV1 ovarian = system: IGROV1 ovarian
K-562 leukemia = system: K-562 leukemia
KM12 colon = system: KM12 colon
LOX IMVI melanoma = system: LOX IMVI melanoma
M14 melanoma = system: M14 melanoma
MCF7 breast = system: MCF7 breast
MDA-MB-231 breast = system: MDA-MB-231 breast
MDA-MB-435 = system: MDA-MB-435
MOLT-4 leukemia = system: MOLT-4 leukemia
NCI-H226 lung = system: NCI-H226 lung
NCI-H23 lung = system: NCI-H23 lung
NCI-H460 lung = system: NCI-H460 lung
NCI-H522 lung = system: NCI-H522 lung
OVCAR-3 ovarian = system: OVCAR-3 ovarian
OVCAR-4 ovarian = system: OVCAR-4 ovarian
OVCAR-5 ovarian = system: OVCAR-5 ovarian
OVCAR-8 ovarian = system: OVCAR-8 ovarian
PC-3 prostate = system: PC-3 prostate
RPMI-8226 leukemia = system: RPMI-8226 leukemia
RXF 393 renal = system: RXF 393 renal
SF-268 CNS = system: SF-268 CNS
SF-295 CNS = system: SF-295 CNS
SF-539 CNS = system: SF-539 CNS
SK-MEL-2 melanoma = system: SK-MEL-2 melanoma
SK-MEL-28 melanoma = system: SK-MEL-28 melanoma
SK-MEL-5 melanoma = system: SK-MEL-5 melanoma
SK-OV-3 ovarian = system: SK-OV-3 ovarian
SN12C renal = system: SN12C renal
SNB-19 CNS = system: SNB-19 CNS
SNB-75 CNS = system: SNB-75 CNS
SR leukemia = system: SR leukemia
SW-620 colon = system: SW-620 colon
T-47D breast = system: T-47D breast
U251 CNS = system: U251 CNS
UACC-62 melanoma = system: UACC-62 melanoma
UO-31 renal = system: UO-31 renal

With `O=[N+]([O-])c1ccc(N/N=C\c2cc(Br)ccc2O)nc1` the GI50 (A498 renal) was 6.11 µM, the TGI (A498 renal) was over 100 µM and the GI50 (A549 NSCLC) was 2.84 µM. It also gave a TGI (A549 NSCLC) of 29.8 µM, a GI50 (ACHN renal) of 0.461 µM and a TGI (ACHN renal) of 2.56 µM. The GI50 (BT-549 breast) was 4.95 µM, the TGI (BT-549 breast) was over 100 µM and the GI50 (CAKI-1 renal) was 0.459 µM. For the same compound, the TGI (CAKI-1 renal) was 2.35 µM, the GI50 (CCRF-CEM leukemia) was 0.314 µM and the TGI (CCRF-CEM leukemia) was over 100 µM. The GI50 (COLO 205 colon) was 3.3 µM, the TGI (COLO 205 colon) was over 100 µM and the GI50 (DU-145 prostate) was 0.912 µM. For the same compound, the TGI (DU-145 prostate) was 5.77 µM, the GI50 (EKVX NSCLC) was 2.4 µM and the TGI (EKVX NSCLC) was 7.69 µM. It also gave a GI50 (HCC-2998 colon) of 3.18 µM, a TGI (HCC-2998 colon) of over 100 µM and a GI50 (HCT-116 colon) of 0.451 µM. For the same compound, the TGI (HCT-116 colon) was 2.44 µM, the GI50 (HCT-15 colon) was 0.437 µM and the TGI (HCT-15 colon) was over 100 µM. For the same compound, the GI50 (HL-60(TB) leukemia) was 0.314 µM, the TGI (HL-60(TB) leukemia) was over 100 µM and the GI50 (HOP-62 NSCLC) was 1.59 µM. It also gave a TGI (HOP-62 NSCLC) of 10.3 µM, a GI50 (HOP-92 NSCLC) of 1.62 µM and a TGI (HOP-92 NSCLC) of 6.77 µM. For the same compound, the GI50 (HS 578T breast) was 2.13 µM, the TGI (HS 578T breast) was 8.93 µM and the GI50 (HT29 colon) was 4.27 µM. For the same compound, the TGI (HT29 colon) was over 100 µM, the GI50 (IGROV1 ovarian) was 1.05 µM and the TGI (IGROV1 ovarian) was 3.44 µM. It also gave a GI50 (K-562 leukemia) of 0.612 µM, a TGI (K-562 leukemia) of over 100 µM and a GI50 (KM12 colon) of 1.23 µM. For the same compound, the TGI (KM12 colon) was 17.5 µM, the GI50 (LOX IMVI melanoma) was 0.472 µM and the TGI (LOX IMVI melanoma) was 2.37 µM. The GI50 (M14 melanoma) was 1.22 µM, the TGI (M14 melanoma) was 4.87 µM and the GI50 (MCF7 breast) was 0.489 µM. For the same compound, the TGI (MCF7 breast) was over 100 µM, the GI50 (MDA-MB-231 breast) was 0.511 µM and the TGI (MDA-MB-231 breast) was 4.76 µM. The GI50 (MDA-MB-435) was 1.39 µM, the TGI (MDA-MB-435) was over 100 µM and the GI50 (MOLT-4 leukemia) was 0.347 µM. For the same compound, the TGI (MOLT-4 leukemia) was 23.9 µM, the GI50 (NCI-H226 lung) was 3.11 µM and the TGI (NCI-H226 lung) was over 100 µM. The GI50 (NCI-H23 lung) was 1.23 µM, the TGI (NCI-H23 lung) was 10.9 µM and the GI50 (NCI-H460 lung) was 0.636 µM. It also gave a TGI (NCI-H460 lung) of 2.72 µM, a GI50 (NCI-H522 lung) of 0.485 µM and a TGI (NCI-H522 lung) of 3.23 µM. For the same compound, the GI50 (OVCAR-3 ovarian) was 0.525 µM, the TGI (OVCAR-3 ovarian) was 2.3 µM and the GI50 (OVCAR-4 ovarian) was 0.543 µM. The TGI (OVCAR-4 ovarian) was 4.02 µM, the GI50 (OVCAR-5 ovarian) was 5.51 µM and the TGI (OVCAR-5 ovarian) was over 100 µM. The GI50 (OVCAR-8 ovarian) was 0.415 µM, the TGI (OVCAR-8 ovarian) was 8.86 µM and the GI50 (PC-3 prostate) was 1.67 µM. The TGI (PC-3 prostate) was over 100 µM, the GI50 (RPMI-8226 leukemia) was 0.753 µM and the TGI (RPMI-8226 leukemia) was over 100 µM. It also gave a GI50 (RXF 393 renal) of 2.17 µM, a TGI (RXF 393 renal) of 9.95 µM and a GI50 (SF-268 CNS) of 0.452 µM. The TGI (SF-268 CNS) was 4.18 µM, the GI50 (SF-295 CNS) was 1.05 µM and the TGI (SF-295 CNS) was 3.11 µM. It also gave a GI50 (SF-539 CNS) of 0.918 µM, a TGI (SF-539 CNS) of 4.16 µM and a GI50 (SK-MEL-2 melanoma) of 4.88 µM. For the same compound, the TGI (SK-MEL-2 melanoma) was over 100 µM, the GI50 (SK-MEL-28 melanoma) was 2.05 µM and the TGI (SK-MEL-28 melanoma) was over 100 µM. The GI50 (SK-MEL-5 melanoma) was 1.32 µM, the TGI (SK-MEL-5 melanoma) was 10.9 µM and the GI50 (SK-OV-3 ovarian) was 1.27 µM. The TGI (SK-OV-3 ovarian) was 12 µM, the GI50 (SN12C renal) was 0.807 µM and the TGI (SN12C renal) was 12.9 µM. It also gave a GI50 (SNB-19 CNS) of 1.05 µM, a TGI (SNB-19 CNS) of 19.8 µM and a GI50 (SNB-75 CNS) of 1.32 µM. The TGI (SNB-75 CNS) was 3.85 µM, the GI50 (SR leukemia) was 0.463 µM and the TGI (SR leukemia) was over 100 µM. It also gave a GI50 (SW-620 colon) of 0.934 µM, a TGI (SW-620 colon) of over 100 µM and a GI50 (T-47D breast) of 2.07 µM. For the same compound, the TGI (T-47D breast) was over 100 µM, the GI50 (U251 CNS) was 0.736 µM and the TGI (U251 CNS) was 3.24 µM. The GI50 (UACC-62 melanoma) was 1.86 µM, the TGI (UACC-62 melanoma) was 6.15 µM and the GI50 (UO-31 renal) was 0.376 µM. It also gave a TGI (UO-31 renal) of 2.01 µM.
